Where two headings read alike, the source gives them in different places.
Assays:
[1] = system: A375 human melanoma xenografts; experiment: Example 8 efficacy study in A375 human melanoma xenografts (tumor volume, T/C, TGI); assay type: in vivo, BALB/c nude mice; conditions: 10 mg/kg, p.o.
Procedure: For efficacy study, agents were tested in the A375 human melanoma xenografts model. Compound 8, Compound 26, and Compound 38 were administered to BALB/c nude mice bearing A375 xenografts from day 0 and dosed p.o. twice per day (BID). Compound 8 and Compound 26 were dosed at 10 mg/kg for 21 days. Compound 38 was dosed at 10 mg/kg for 10 days. The known BRAF inhibitor encorafenib was used as a positive control. encorafenib was administered from day 1 and dosed p.o. daily (QD) for 21 days and dosed at 35 mg/kg.
The A375 tumor cells were maintained in vitro in DMEM medium supplemented with […] and 1% Penicillin-Streptomycin at 37° C. in an atmosphere of 5% CO2 in air. The tumor cells were routinely subcultured twice weekly. The cells growing in an exponential growth phase were harvested and counted for tumor inoculation.
Each mouse was inoculated subcutaneously at the right flank with A375 cells (5×10^6) in 0.2 mL of PBS supplemented with Matrigel (PBS:Matrigel=1:1) for tumor development. Animals were grouped for treatment 16 days after tumor inoculation when the average tumor volume reached 234 mm^3 for efficacy study and 382 mm^3 for PKPD study. The test articles administration and the animal numbers in each group are shown in the above experimental tables.
Prior to the onset of drug treatment, mice were measured for tumor size in two dimensions using a caliper, and the tumor volume (mm^3) was calculated using formula V=0.5 a×b^2 where a and b are the long and short diameters of the tumor in mm, respectively. Mice were randomized into different treatment groups based on the tumor volume.
The major endpoint was to see if the tumor growth could be delayed or mice could be cured. The tumor size was then used for calculations of T/C value. The T/C value (in percent) is an indication of antitumor effectiveness; T and C are the mean volumes of the treated and control groups, respectively on specified day.
TGI was calculated for each group using the formula: TGI (%)=[1−(Ti−T0)/(Ci−C0)]×100; Ti is the average tumor volume of a treatment group on a given day, T0 is the average tumor volume of the treatment group on the day of treatment start, Ci is the average tumor volume of the vehicle control group on the same day with Ti, and C0 is the average tumor volume of the vehicle group on the day of treatment start.

[2] = Example 6 pharmacokinetics assay for PKPD study (plasma, tumor, liver); assay type: in vivo, BALB/c nude mice; conditions: 10 mg/kg, single dose; for concentration at 6 h / concentration at 12 h / concentration at 1 h / concentration at 24 h: mouse, po
Procedure: For the pharmacokinetic/pharmacodynamic (PKPD) study, compounds were tested in the A375 human melanoma xenografts. Known BRAF inhibitors encorafenib, and dabrafenib were used as positive controls. Encorafenib, dabrafenib, Compound 83, Compound 93, Compound 70, and Compound 54 were administered to BALB/c nude mice bearing A375 tumors on PG-D1 and dosed orally (PO) once. Encorafenib was dosed at 35 mg/kg. Dabrafenib was dosed at 100 mg/kg. Compound 83, Compound 93, Compound 70, and Compound 54 were dosed at 10 mg/kg. The plasma and tumor samples were collected at 1, 6, 12 and 24 hours, and liver samples were collected at 6 hours and 12 hours post the single dose. This study was non-GLP study.
The plasma samples were collected at predetermined time points for PK analysis. The mice were euthanized at predetermined time points post the treatment. The blood samples were collected into the 1.5 mL Eppendorf tubes containing 15 μL of 0.5 M EDTA-K2. And then the anticoagulant blood samples were centrifuged at 2,500 g at 4° C. for 15 minutes. The plasma samples were separated into 2 aliquots. The 1st was used for PK analysis, and the 2nd served as backup. The samples were stored at −80° C. before bioanalysis.
The tumor samples were collected at predetermined time points for PK and WB analysis (B-RAF and p-ERK). The tumor was dissected out and split into 3 parts. The 1st part was used for PK analysis, the 2nd part was used for WB analysis and the last one served as backup for study. The samples were transferred into pre-labeled tubes and quickly froze in liquid nitrogen within 2 minutes after dissection. The samples were stored at −80° C. before bioanalysis.
Liver samples were collected at predetermined time points for PK analysis. The left lobe of the liver was dissected out and split into 2 parts. The 1st part was used for PK analysis and the 2nd part served as the backup for the study. The samples were transferred into pre-labeled tubes and quickly froze in liquid nitrogen within 2 minutes after dissection. The samples were stored at −80° C. before bioanalysis.
For PKPD study, the harvested plasma, tumor and liver were processed for pharmacokinetics analysis by LC/MS/MS with a concentration range of 0.5-1000 ng/mL for Encorafenib and Dabrafenib in plasma, 0.05-100 ng/mL for Encorafenib and Dabrafenib in tumor, 0.2-200 ng/mL for Encorafenib and Dabrafenib in liver, 2.0-2000 ng/mL for compound 93, compound 83, compound 54 and compound 70 in liver, 50.0-50000 ng/mL for compound 83 and compound 70 in plasma, 0.5-1000 ng/mL for compound 83 and compound 70 in tumor, 1.0-2000 ng/mL for compound 93 in plasma, 10.0-20000 ng/mL for compound 54 in plasma, 0.5-500 ng/mL for compound 93 and compound 54 in tumor.

[3] = liver, 6 h, read-out: Concentration in Liver (mean ± SEM)
[4] = liver, 12 h, read-out: Concentration in Liver (mean ± SEM)
[5] = plasma, 1 h, read-out: Concentration in Plasma (mean ± SEM)
[6] = plasma, 6 h, read-out: Concentration in Plasma (mean ± SEM)
[7] = plasma, 12 h, read-out: Concentration in Plasma (mean ± SEM)
[8] = plasma, 24 h, read-out: Concentration in Plasma (mean ± SEM)
[9] = tumor, 1 h, read-out: Concentration in Tumor (mean ± SEM)
[10] = tumor, 6 h, read-out: Concentration in Tumor (mean ± SEM)
[11] = tumor, 12 h, read-out: Concentration in Tumor (mean ± SEM)
[12] = tumor, 24 h, read-out: Concentration in Tumor (mean ± SEM)

Compound: CCN(C)S(=O)(=O)Nc1ccc(F)c(Oc2ccc3ncn(C4CC5(CCN(C6CCC(c7cc8c(cc7F)c(N7CCC(=O)NC7=O)nn8C)CC6)CC5)C4)c(=O)c3c2)c1C#N (single isomer, unassigned) [Compound 8, 6-[2-cyano-3-[[ethyl(methyl)sulfamoyl]amino]-6-fluoro-phenoxy]-3-[7-[4-[3-(2,4-dioxohexahydropyrimidin-1-yl)-5-fluoro-1-methyl-indazol-6-yl]cyclohexyl]-7-azaspiro[3.5]nonan-2-yl]-4-oxo-quinazoline]
- T/C ([1]; BID × 21 days, PG-D21): 1.29%
- TGI ([1]; BID × 21 days, PG-D21): 114.48%
- Tumor Size on PG-D21 (Mean ± SEM) ([1]; BID × 21 days, PG-D21): 22 ± 3 mm^3
- Tumor Volume (mean ± SEM) ([1]; BID × 21 days, day 0): 234 ± 7 mm^3
- Tumor Volume (mean ± SEM) ([1]; BID × 21 days, day 3): 185 ± 6 mm^3
- Tumor Volume (mean ± SEM) ([1]; BID × 21 days, day 6): 105 ± 9 mm^3
- Tumor Volume (mean ± SEM) ([1]; BID × 21 days, day 9): 57 ± 4 mm^3
- Tumor Volume (mean ± SEM) ([1]; BID × 21 days, day 13): 32 ± 4 mm^3
- Tumor Volume (mean ± SEM) ([1]; BID × 21 days, day 17): 28 ± 3 mm^3
- Tumor Volume (mean ± SEM) ([1]; BID × 21 days, day 21): 22 ± 3 mm^3

Compound: CCN(C)S(=O)(=O)Nc1ccc(F)c(Oc2ccc3ncn([C@H]4COC5(CCC(N6CCC(c7cc8c(cc7F)c(N7CCC(=O)NC7=O)nn8C)C(F)(F)C6)CC5)C4)c(=O)c3c2)c1C#N (single isomer, unassigned) [Compound 38]
- T/C ([1]; BID × 10 days, PG-D9): 4.30%
- TGI ([1]; BID × 10 days, PG-D9): 134.38%
- Tumor Size on PG-D9 (mean ± SEM) ([1]; BID × 10 days, PG-D9): 35 ± 3 mm^3
- Tumor Volume (mean ± SEM) ([1]; BID × 10 days, day 0): 234 ± 7 mm^3
- Tumor Volume (mean ± SEM) ([1]; BID × 10 days, day 3): 134 ± 7 mm^3
- Tumor Volume (mean ± SEM) ([1]; BID × 10 days, day 6): 67 ± 7 mm^3
- Tumor Volume (mean ± SEM) ([1]; BID × 10 days, day 9): 35 ± 3^b mm^3

Compound: CCN(C)S(=O)(=O)Nc1ccc(F)c(Oc2ccc3ncc([C@@H]4COC5(CCN(C6CCC(c7cc8c(cc7F)c(N7CCC(=O)NC7=O)nn8C)CC6)CC5)C4)nc3c2)c1C#N (single isomer, unassigned) [Compound 54]
- concentration at 6 h [2, 3]: 4470 ± 501 ng/g
- concentration at 12 h [2, 4]: 650 ± 84.2 ng/g
- concentration at 1 h [2, 5]: 7740 ± 1180 ng/mL
- concentration at 6 h [2, 6]: 3410 ± 703 ng/mL
- concentration at 12 h [2, 7]: 605 ± 124 ng/mL
- concentration at 24 h [2, 8]: 54 ± 9.5 ng/mL
- concentration at 1 h [2, 9]: 513 ± 28.8 ng/g
- concentration at 6 h [2, 10]: 931 ± 147 ng/g
- concentration at 12 h [2, 11]: 477 ± 125 ng/g
- concentration at 24 h [2, 12]: 29.8 ± 2.9 ng/g

Compound: CCN(C)S(=O)(=O)Nc1ccc(F)c(Oc2ccc3ncn([C@H]4COC5(CCN(C6CC(c7cc8c(cc7F)c(N7CCC(=O)NC7=O)nn8C)C6)CC5)C4)c(=O)c3c2)c1C#N (single isomer, unassigned) [Compound 70]
- Concentration in Plasma (mean ± SEM) ([2]; 1 h): 15100 ± 3559 ng/mL
- Concentration in Tumor (mean ± SEM) ([2]; 1 h): 816 ± 239 ng/g
- Concentration in Liver (mean ± SEM) ([2]; 6 h): 4363 ± 1423 ng/g
- Concentration in Plasma (mean ± SEM) ([2]; 6 h): 8563 ± 2312 ng/mL
- Concentration in Tumor (mean ± SEM) ([2]; 6 h): 1529 ± 458 ng/g
- Concentration in Liver (mean ± SEM) ([2]; 12 h): 921 ± 317 ng/g
- Concentration in Plasma (mean ± SEM) ([2]; 12 h): 2105 ± 800 ng/mL
- Concentration in Tumor (mean ± SEM) ([2]; 12 h): 564 ± 206 ng/g
- Concentration in Plasma (mean ± SEM) ([2]; 24 h): 106 ± 10.8 ng/mL
- Concentration in Tumor (mean ± SEM) ([2]; 24 h): 21.9 ± 4.93 ng/g

Compound: CCN(C)S(=O)(=O)Nc1ccc(F)c(Oc2ccc3ncn(C4CC5(CCN(C6CCC(c7cc8c(cc7F)c(N7CCC(=O)NC7=O)nn8C)CC6F)CC5)C4)c(=O)c3c2)c1C#N (single isomer, unassigned) [Compound 83, 6-[2-cyano-3-[[ethyl(methyl)sulfamoyl]amino]-6-fluoro-phenoxy]-3-[7-[4-[3-(2,4-dioxohexahydropyrimidin-1-yl)-5-fluoro-1-methyl-indazol-6-yl]-2-fluoro-cyclohexyl]-7-azaspiro[3.5]nonan-2-yl]-4-oxo-quinazoline]
- concentration at 6 h [2, 3]: 6990 ± 166 ng/g
- concentration at 12 h [2, 4]: 1580 ± 273 ng/g
- concentration at 1 h [2, 5]: 20100 ± 1510 ng/mL
- concentration at 6 h [2, 6]: 10400 ± 338 ng/mL
- concentration at 12 h [2, 7]: 2420 ± 572 ng/mL
- concentration at 24 h [2, 8]: 172 ng/mL
- concentration at 1 h [2, 9]: 1650 ± 249 ng/g
- concentration at 6 h [2, 10]: 1820 ± 354 ng/g
- concentration at 12 h [2, 11]: 751 ± 128 ng/g
- concentration at 24 h [2, 12]: 57.6 ± 37 ng/g

Compound: Cn1nc(N2CCC(=O)NC2=O)c2cc(F)c(C3CCC(N4CCC5(CC4)CC(n4cnc6ccc(Oc7c(F)ccc(NS(=O)(=O)C8CCCC8)c7C#N)cc6c4=O)C5)CC3)cc21 (single isomer, unassigned) [Compound 93, N-[2-cyano-3-[3-[7-[4-[3-(2,4-dioxohexahydropyrimidin-1-yl)-5-fluoro-1-methyl-indazol-6-yl]cyclohexyl]-7-azaspiro[3.5]nonan-2-yl]-4-oxo-quinazolin-6-yl]oxy-4-fluoro-phenyl]cyclopentanesulfonamide]
- concentration at 6 h [2, 3]: 460 ± 32.7 ng/g
- concentration at 12 h [2, 4]: 117 ± 30.2 ng/g
- concentration at 1 h [2, 5]: 2450 ± 799 ng/mL
- concentration at 6 h [2, 6]: 548 ± 28.3 ng/mL
- concentration at 12 h [2, 7]: 114 ± 25.6 ng/mL
- concentration at 24 h [2, 8]: 2.85 ± 0.408 ng/mL
- concentration at 1 h [2, 9]: 232 ± 75.6 ng/g
- concentration at 6 h [2, 10]: 129 ± 13.6 ng/g
- concentration at 12 h [2, 11]: 50.6 ± 14.1 ng/g
- concentration at 24 h [2, 12]: 59.5 ng/g

Compound: CCN(C)S(=O)(=O)Nc1ccc(F)c(Oc2ccc3ncn([C@H]4COC5(CCN(C6CC7(C6)CN(c6cc8c(cc6F)c(N6CCC(=O)NC6=O)nn8C)C7)CC5)C4)c(=O)c3c2)c1C#N [Compound 26, (3R)-3-[6-[2-cyano-3-[[ethyl(methyl)sulfamoyl]amino]-6-fluoro-phenoxy]-4-oxo-quinazolin-3-yl]-8-[2-[3-(2,4-dioxohexahydropyrimidin-1-yl)-5-fluoro-1-methyl-indazol-6-yl]-2-azaspiro[3.3]heptan-6-yl]-1-oxa-8-azaspiro[4.5]decane]
- T/C ([1]; BID × 21 days, PG-D21): 0.97%
- TGI ([1]; BID × 21 days, PG-D21): 114.89%
- Tumor Size on PG-D21 (Mean ± SEM) ([1]; BID × 21 days, PG-D21): 16 ± 2 mm^3
- Tumor Volume (mean ± SEM) ([1]; BID × 21 days, day 0): 234 ± 7 mm^3
- Tumor Volume (mean ± SEM) ([1]; BID × 21 days, day 3): 148 ± 10 mm^3
- Tumor Volume (mean ± SEM) ([1]; BID × 21 days, day 6): 57 ± 4 mm^3
- Tumor Volume (mean ± SEM) ([1]; BID × 21 days, day 9): 33 ± 3 mm^3
- Tumor Volume (mean ± SEM) ([1]; BID × 21 days, day 13): 21 ± 2 mm^3
- Tumor Volume (mean ± SEM) ([1]; BID × 21 days, day 17): 18 ± 1 mm^3
- Tumor Volume (mean ± SEM) ([1]; BID × 21 days, day 21): 16 ± 2 mm^3
